Laboratory results: patent US20200291018A1, “TAM KINASE INHIBITORS” (SYROS PHARMACEUTICALS, INC., priority 2017, published 2020)

Key:
MERTK = target: T1, MERTK (Homo sapiens, UniProt Q12866); assay: TR-FRET kinase activity assay, MERTK; type: biochemical; details: for IC50: TR-FRET activity assay, ATP at Km, 60 minutes, read-out: Mer IC50; for Mer/Flt3 ratio (FLT3 IC50/Mer IC50): ratio calculated as FLT3 IC50/Mer IC50
T1 sequence (Q12866 21-999): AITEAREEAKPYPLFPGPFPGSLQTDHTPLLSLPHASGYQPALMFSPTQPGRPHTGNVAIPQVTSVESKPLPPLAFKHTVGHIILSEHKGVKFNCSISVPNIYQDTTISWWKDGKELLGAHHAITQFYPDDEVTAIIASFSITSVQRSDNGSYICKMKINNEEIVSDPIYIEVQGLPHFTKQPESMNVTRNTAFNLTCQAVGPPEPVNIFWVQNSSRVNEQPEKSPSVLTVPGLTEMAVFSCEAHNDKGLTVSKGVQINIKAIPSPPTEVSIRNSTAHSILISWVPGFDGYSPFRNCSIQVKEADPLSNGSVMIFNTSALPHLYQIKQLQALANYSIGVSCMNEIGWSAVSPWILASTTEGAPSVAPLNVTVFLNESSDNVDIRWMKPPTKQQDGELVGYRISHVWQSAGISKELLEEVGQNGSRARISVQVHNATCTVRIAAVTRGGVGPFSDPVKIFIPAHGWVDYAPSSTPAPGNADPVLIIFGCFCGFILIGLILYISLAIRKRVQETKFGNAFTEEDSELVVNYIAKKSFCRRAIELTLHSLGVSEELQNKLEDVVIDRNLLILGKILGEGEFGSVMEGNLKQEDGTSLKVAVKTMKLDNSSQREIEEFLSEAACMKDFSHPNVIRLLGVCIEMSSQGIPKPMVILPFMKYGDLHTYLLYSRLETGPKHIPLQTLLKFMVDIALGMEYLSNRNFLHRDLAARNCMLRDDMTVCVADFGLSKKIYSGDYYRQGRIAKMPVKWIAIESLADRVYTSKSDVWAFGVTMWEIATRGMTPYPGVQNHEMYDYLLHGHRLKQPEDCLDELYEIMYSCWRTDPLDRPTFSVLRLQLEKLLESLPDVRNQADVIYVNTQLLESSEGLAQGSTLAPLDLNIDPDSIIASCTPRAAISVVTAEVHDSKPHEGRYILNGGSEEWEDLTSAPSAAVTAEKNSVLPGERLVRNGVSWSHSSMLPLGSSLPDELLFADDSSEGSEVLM
How it was run: (§1)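 Enzyme, fluorescent-labeled peptide substrate and compound were mixed in 50 mM HEPES pH 7.5, 10 mM MgCl2, 1 mM EGTA, 0.01% Brij 35, 1 mM DTT at RT; ATP at each enzyme's Km started the reaction. After 60 min, EDTA quench and Eu-anti-phosphotyrosine-site antibody (30 min, dark); TR-FRET read, IC50 derived.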

TYRO3 = target: T2, TYRO3 (Homo sapiens, UniProt Q06418); assay: TR-FRET kinase activity assay, TYRO3; type: biochemical; details: ATP at Km, 60 minutes
T2 sequence (Q06418 41-890): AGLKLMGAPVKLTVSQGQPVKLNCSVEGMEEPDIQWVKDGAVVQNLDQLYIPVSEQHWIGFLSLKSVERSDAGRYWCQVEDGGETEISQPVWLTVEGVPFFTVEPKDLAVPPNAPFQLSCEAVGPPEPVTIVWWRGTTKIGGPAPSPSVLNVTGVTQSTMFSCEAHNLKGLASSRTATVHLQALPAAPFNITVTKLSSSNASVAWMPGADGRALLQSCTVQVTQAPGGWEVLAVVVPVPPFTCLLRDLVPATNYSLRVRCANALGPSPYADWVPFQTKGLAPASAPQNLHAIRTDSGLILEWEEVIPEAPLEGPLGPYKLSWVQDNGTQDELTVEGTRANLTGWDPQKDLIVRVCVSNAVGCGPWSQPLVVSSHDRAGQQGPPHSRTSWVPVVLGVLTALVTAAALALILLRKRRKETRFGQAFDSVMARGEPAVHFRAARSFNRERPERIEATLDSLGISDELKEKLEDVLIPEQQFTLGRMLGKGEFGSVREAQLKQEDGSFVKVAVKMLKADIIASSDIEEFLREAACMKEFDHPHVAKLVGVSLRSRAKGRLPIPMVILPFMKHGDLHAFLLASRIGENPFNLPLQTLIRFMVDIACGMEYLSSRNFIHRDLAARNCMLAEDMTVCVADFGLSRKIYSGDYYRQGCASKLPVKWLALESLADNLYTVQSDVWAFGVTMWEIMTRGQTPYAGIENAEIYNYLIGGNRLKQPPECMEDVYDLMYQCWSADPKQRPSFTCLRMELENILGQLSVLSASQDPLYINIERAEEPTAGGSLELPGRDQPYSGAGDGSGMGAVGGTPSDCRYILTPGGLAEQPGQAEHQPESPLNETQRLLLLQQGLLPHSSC
How it was run: as §1

SMILES	IC50 (MERTK) [nM]	Mer/Flt3 ratio (FLT3 IC50/Mer IC50) (MERTK)	IC50 (TYRO3) [nM]
COC[C@H](C)Nc1ncc2c(Nc3ccnc(C)c3)ncc([C@H]3CC[C@H](O)CC3)c2n1 [Compound 372]	≤ 100	+++ (a ratio of >100)	100 to 1000
CCC[C@H](C)Nc1ncc2c(=O)n(C3CCNCC3)cc([C@H]3CC[C@H](O)CC3)c2n1 [Compound 126]	≤ 100	+++ (a ratio of >100)	≤ 100
CCOc1ncc([C@H]2CC[C@H](O)CC2)c2nc(N[C@@H](C)CC(F)(F)F)ncc12 [Compound 359]	≤ 100	+++ (a ratio of >100)	≤ 100
C[C@@H](CC(F)(F)F)Nc1ncc2c(O[C@@H]3C[C@H]4CC[C@@H](C3)N4C[C@H]3CCOC3)ncc([C@H]3CC[C@H](O)CC3)c2n1 [Compound 414]	≤ 100	+++ (a ratio of >100)	≤ 100
C[C@@H](Nc1ncc2c(OC3CCOCC3)ncc([C@H]3CC[C@H](O)CC3)c2n1)C(F)F [Compound 394]	≤ 100	+++ (a ratio of >100)	100 to 1000
COCCN1C(C)(C)CC(Oc2ncc([C@H]3CC[C@H](O)CC3)c3nc(N[C@@H](C)CC(F)(F)F)ncc23)CC1(C)C [Compound 355]	≤ 100	+++ (a ratio of >100)	≤ 100
O=C(O)[C@H]1CC[C@H](Nc2ncc3c(OC4CCOCC4)ncc([C@H]4CC[C@H](O)CC4)c3n2)CC1 [Compound 410]	≤ 100	+++ (a ratio of >100)	100 to 1000
COCCN1C(C)(C)CC(Oc2ncc([C@H]3CC[C@H](O)CC3)c3nc(N[C@@H]4CCOC4)ncc23)CC1(C)C [Compound 390]	≤ 100	++ (a ratio of between 10 and 100)	100 to 1000
COC[C@H](C)Nc1ncc2c(O[C@H]3C[C@@H](O)C3)ncc(-c3ccnnc3)c2n1 [Compound 425]	100 to 1000	++ (a ratio of between 10 and 100)	1000 to 10000
COC[C@H](C)Nc1ncc2c(C(F)(F)F)ncc([C@H]3CC[C@H](O)CC3)c2n1 [Compound 403]	100 to 1000	++ (a ratio of between 10 and 100)	1000 to 10000
C[C@@H](CC(F)(F)F)Nc1ncc2c(OC3CC(C)(C)N(C[C@@H]4CCCO4)C(C)(C)C3)ncc([C@H]3CC[C@H](O)CC3)c2n1 [Compound 418]	≤ 100	+++ (a ratio of >100)	≤ 100
COC[C@H](C)Nc1ncc2c(OC3CCOCC3)ncc(-c3ccc(S(C)(=O)=O)cc3)c2n1 [Compound 400]	100 to 1000	++ (a ratio of between 10 and 100)	100 to 1000
C[C@@H](CC(F)(F)F)Nc1ncc2c(O[C@H]3C[C@@H](CN4CCOCC4)C3)ncc([C@H]3CC[C@H](O)CC3)c2n1 [Compound 402]	≤ 100	+++ (a ratio of >100)	≤ 100
C[C@@H](CC(F)(F)F)Nc1ncc2c(OC3CC(C)(C)N(C)C(C)(C)C3)ncc([C@H]3CC[C@H](O)CC3)c2n1 [Compound 386]	≤ 100	+++ (a ratio of >100)	≤ 100
Cc1ncc([C@H]2CC[C@H](O)CC2)c2nc(N[C@@H](C)CC(F)(F)F)ncc12 [Compound 356]	≤ 100	+++ (a ratio of >100)	≤ 100
COC[C@H](C)Nc1ncc2c(Nc3ccncc3)ncc([C@H]3CC[C@H](O)CC3)c2n1 [Compound 362]	≤ 100	+++ (a ratio of >100)	100 to 1000
C[C@@H](CC(F)(F)F)Nc1ncc2c(O[C@H]3C[C@@H](N4CCOCC4)C3)ncc([C@H]3CC[C@H](O)CC3)c2n1 [Compound 408]	≤ 100	+++ (a ratio of >100)	≤ 100
C[C@@H](CC(F)(F)F)Nc1ncc2c(O[C@H]3C[C@@](C)(O)C3)ncc([C@H]3CC[C@H](O)CC3)c2n1 [Compound 429]	≤ 100	+++ (a ratio of >100)	≤ 100
CCN1C(C)(C)CC(Oc2ncc([C@H]3CC[C@H](O)CC3)c3nc(N[C@@H](C)CC(F)(F)F)ncc23)CC1(C)C [Compound 391]	≤ 100	+++ (a ratio of >100)	≤ 100
COC[C@H](C)Nc1ncc2c(Nc3cccnc3)ncc([C@H]3CC[C@H](O)CC3)c2n1 [Compound 363]	≤ 100	+++ (a ratio of >100)	≤ 100
COC[C@H](C)Nc1ncc2c(OC3C[C@H](C)N(C)[C@@H](C)C3)ncc([C@H]3CC[C@H](O)CC3)c2n1 (stereo partly drawn) [Compound 387]	≤ 100	+++ (a ratio of >100)	≤ 100
C[C@@H](CC(F)(F)F)Nc1ncc2c(O[C@H]3C[C@H](O)C3)ncc([C@H]3CC[C@H](O)CC3)c2n1 [Compound 364]	≤ 100	+++ (a ratio of >100)	≤ 100
COC[C@H](C)Nc1ncc2c(OC3CCOCC3)ncc(-c3ccc(F)cc3)c2n1 [Compound 395]	100 to 1000	++ (a ratio of between 10 and 100)	1000 to 10000
O=C(O)c1ccc(Nc2ncc3c(OC4CCOCC4)ncc([C@H]4CC[C@H](O)CC4)c3n2)cc1 [Compound 397]	≤ 100	++ (a ratio of between 10 and 100)	≤ 100
COC[C@H](C)Nc1ncc2c(O[C@H]3CCN(C)C(C)(C)C3)ncc([C@H]3CC[C@H](O)CC3)c2n1 [Compound 384]	≤ 100	+++ (a ratio of >100)	≤ 100
COC[C@H](C)Nc1ncc2c(OC3CC(C)(C)N(C(C)=O)C(C)(C)C3)ncc([C@H]3CC[C@H](O)CC3)c2n1 [Compound 361]	≤ 100	+++ (a ratio of >100)	100 to 1000
C[C@@H](CC(F)(F)F)Nc1ncc2c(O[C@H]3C[C@H](N4CCOCC4)C3)ncc([C@H]3CC[C@H](O)CC3)c2n1 [Compound 422]	≤ 100	+++ (a ratio of >100)	≤ 100
COC[C@H](C)Nc1ncc2c(O[C@@H]3CCN(C)C(C)(C)C3)ncc([C@H]3CC[C@H](O)CC3)c2n1 [Compound 385]	≤ 100	+++ (a ratio of >100)	≤ 100
C[C@@H](COC(F)F)Nc1ncc2c(O[C@H]3C[C@@H](O)C3)ncc([C@H]3CC[C@H](O)CC3)c2n1 [Compound 407]	≤ 100	+++ (a ratio of >100)	≤ 100
C[C@@H](CC(F)(F)F)Nc1ncc2c(O[C@@H]3C[C@H]4CC[C@@H](C3)N4C[C@H]3CCCO3)ncc([C@H]3CC[C@H](O)CC3)c2n1 [Compound 412]	≤ 100	+++ (a ratio of >100)	≤ 100
